Structures are written as SMILES.

The target of one assay is T1, CCR2 (Homo sapiens, UniProt P41597).
T1 construct: host or cells: HEK293T, transient
T1 sequence (P41597 1-360 isoform P41597-2): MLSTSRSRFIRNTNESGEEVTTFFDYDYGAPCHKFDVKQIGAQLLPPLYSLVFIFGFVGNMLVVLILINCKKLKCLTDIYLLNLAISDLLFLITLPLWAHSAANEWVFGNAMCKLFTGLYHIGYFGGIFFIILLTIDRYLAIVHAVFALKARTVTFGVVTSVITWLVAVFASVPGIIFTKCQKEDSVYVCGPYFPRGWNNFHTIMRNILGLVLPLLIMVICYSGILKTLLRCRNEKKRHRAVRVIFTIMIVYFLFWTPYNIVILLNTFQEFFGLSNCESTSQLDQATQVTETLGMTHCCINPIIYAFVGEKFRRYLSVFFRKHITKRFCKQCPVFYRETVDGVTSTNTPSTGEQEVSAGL
Kind of assay: NanoBRET competition binding assay for CCR2 based on 7, as previously reported. Conditions: NanoBRET competition, tracer 7. The source says: With 6 (Figure 1), a first lead structure for intracellular CCR1 inhibition that features an approximately 20-fold CCR1 over CCR2 selectivity was previously discovered by Ortiz Zacarías et al.([33]) In order to discover new chemotypes for selective CCR1 over CCR2 inhibition, we aimed to apply our novel NanoBRET competition binding assay for CCR1 in combination with our recently published CCR2 competition binding assay based on 7.[47] In our first attempt, we screened a small in-house library enriched with intracellular GPCR ligands and structural analogues thereof. […] Additionally, we tested 23 for binding to the IABS of CCR9 and CXCR2 using our recently reported NanoBRET-based assay platform (Figure 6C).[44],[45] In the course of these studies, we detected no binding of 23 to CCR9 and CXCR2 up to a concentration of 20 μM. Since cell lineage-dependent effects have been observed for CCR1 antagonists,[59] we studied the CCR1 over CCR2 selectivity of 23 by using a previously reported radioligand binding assay with membrane preparations from osteosarcoma (U2OS) cells stably expressing human CCR1 or CCR2.[33] […] In agreement with these previous reports,[33] we observed a reduction in CCR1 over CCR2 selectivity when moving from membrane-based binding assays to cell-based functional assays. […] To investigate a potential signaling bias of 23, we tested the compound by means of a NanoBiT miniGi recruitment assay.[60] […] Thus, this indicated no strong signaling bias of 23 (Figures S9E and S10C). To elucidate the SAR of this new scaffold for selective CCR1 over CCR2 inhibition, we synthesized several analogues of 23 (24–40) and tested them by means of our NanoBRET competition binding assays (Schemes S2 and S3, Table 1, Figures 6F and S11). First, we aimed to examine the impact of the stereochemistry of 23 on CCR1 affinity. As for the structurally related pyrrolone 4, large differences in CCR2 affinity between the eutomer 4-[R] and the distomer 4-[S] were described.[61] […] Furthermore, we identified the 4-hydroxyphenethyl group at position 1 of the pyrrolone scaffold as highly important for CCR1 affinity and selectivity. Its presence seems to block CCR2 binding, also when combined with the structural features of the high-affinity CCR2 ligand 5, as exemplified by 24. Especially the 4-hydroxy group at this moiety is essential for CCR1 binding (see 25 and 26). […] In position 5 of the pyrrolone, several aromatic and aliphatic substituents were tolerated (see 31–35).
For orientation: Bioluminescence resonance energy transfer reports proximity on the nanometre scale.
With `O=C(C1=C(O)C(=O)N(c2ccc(Br)cc2F)C1c1ccc(F)cc1)c1ccccc1` (centres unmarked) [compound 40], the Ki was 7830 nM.

The same assay, now with this note: compound at 20 μM; read-out: % inh. of tracer binding, CCR2.
As to `O=C(C1=C(O)C(=O)N(CCc2ccc(O)cc2)C1c1ccc(F)cc1)c1ccc(O)cc1` (centres unmarked) [compound 38], the inhibition at 20 µM was 19%.

For the molecule `O=C(C1=C(O)C(=O)N(CCc2ccc(O)cc2)C1c1ccc(F)cc1)c1ccccc1` (single isomer, unassigned; (-)) [(-)-23], the inhibition at 20 µM is 27%.

Turning to `CC(=O)C1=C(O)C(=O)N(CCc2ccc(O)cc2)C1C1CCCCC1` (centres unmarked) [compound 24], the inhibition at 20 µM came out at 10%.

Turning to `O=C(C1=C(O)C(=O)N(CCc2ccccc2O)C1c1ccc(F)cc1)c1ccccc1` (centres unmarked) [compound 28], the inhibition at 20 µM came to 49%.

As to `O=C(C1=C(O)C(=O)N(Cc2ccc(O)cc2)C1c1ccc(F)cc1)c1ccccc1` (centres unmarked) [compound 29], the inhibition at 20 µM amounted to 42%.

For `O=C(C1=C(O)C(=O)N(CCc2ccc(O)cc2)C1c1ccc(Br)cc1)c1ccccc1` (centres unmarked) [compound 31], the inhibition at 20 µM was 19%.

Turning to `O=C(C1=C(O)C(=O)N(CCc2ccc(O)cc2)C1c1ccc(Cl)cc1)c1ccccc1` (centres unmarked) [compound 33], the inhibition at 20 µM was 18%.

As to `O=C(C1=C(O)C(=O)N(CCc2ccc(O)cc2)C1C1CCCCC1)c1ccccc1` (centres unmarked) [compound 34], the inhibition at 20 µM amounted to 37%.

Still in this assay, the particulars now being: compound at 20 μM; read-out: CCR2 inhibition class (n.i.).
Take `O=C(C1=C(O)C(=O)N(CCc2ccc(O)cc2)C1c1cccc(Br)c1)C1CC1` (centres unmarked) [compound 37]: the inhibition at 20 µM was less than 10%.

As for `O=C(C1=C(O)C(=O)N(CCc2cccc(O)c2)C1c1ccc(F)cc1)c1ccccc1` (centres unmarked) [compound 27], the inhibition at 20 µM was less than 10%.

Regarding `O=C(C1=C(O)C(=O)N(CCc2ccc(O)cc2)C1c1ccc(F)cc1)c1ccccc1` (single isomer, unassigned; (+)) [(+)-23], the inhibition at 20 µM was less than 10%.

`O=C(C1=C(O)C(=O)N(CCc2ccc(F)cc2)C1c1ccc(F)cc1)c1ccccc1` (centres unmarked) [compound 26]: the inhibition at 20 µM is less than 10%.

With `O=C(C1=C(O)C(=O)N(c2ccc(O)cc2)C1c1ccc(F)cc1)c1ccccc1` (centres unmarked) [compound 30], the inhibition at 20 µM was less than 10%.

The target of a further assay is T2, CCR1 (Homo sapiens, UniProt P32246).
T2 sequence (P32246 1-355): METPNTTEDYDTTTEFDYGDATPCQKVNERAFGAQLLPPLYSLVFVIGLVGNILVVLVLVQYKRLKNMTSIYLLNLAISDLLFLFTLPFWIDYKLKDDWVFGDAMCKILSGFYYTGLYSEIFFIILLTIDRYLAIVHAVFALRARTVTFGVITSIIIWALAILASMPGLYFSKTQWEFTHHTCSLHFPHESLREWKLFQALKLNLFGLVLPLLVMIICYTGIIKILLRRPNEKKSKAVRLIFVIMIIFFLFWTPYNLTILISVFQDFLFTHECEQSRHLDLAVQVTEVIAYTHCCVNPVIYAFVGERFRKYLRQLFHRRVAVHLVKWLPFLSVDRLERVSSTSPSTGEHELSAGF
As to the kind of experiment: Membrane-based NanoBRET competition assay with 12 (2000 nM) and CCR1_Nluc membranes. Format: binding. Particulars: 12 (2000 nM), CCR1_Nluc membranes; read-out: Ki, CCR1 (converted). On the set-up: Promega pNLF1-C (Nluc) #CCR010TN00; host or cells: HEK293T, transient (PEI).
On to `O=C(C1=C(O)C(=O)N(CCc2cccc(O)c2)C1c1ccc(F)cc1)c1ccccc1` (centres unmarked) [compound 27], for which the Ki was 184 nM.

For the molecule `O=C(C1=C(O)C(=O)N(CCc2ccc(O)cc2)C1c1ccc(F)cc1)c1ccccc1` (single isomer, unassigned; (+)) [(+)-23], the Ki is 65.7 nM.

For the molecule `O=C(C1=C(O)C(=O)N(CCc2ccc(F)cc2)C1c1ccc(F)cc1)c1ccccc1` (centres unmarked) [compound 26], the Ki was 952 nM.

As for `O=C(C1=C(O)C(=O)N(CCc2ccc(O)cc2)C1c1ccc(F)cc1)c1ccccc1` (single isomer, unassigned; (-)) [(-)-23], the Ki is 216 nM.

Take `O=C(C1=C(O)C(=O)N(CCc2ccccc2O)C1c1ccc(F)cc1)c1ccccc1` (centres unmarked) [compound 28]: the Ki was 291 nM.

As for `O=C(C1=C(O)C(=O)N(Cc2ccc(O)cc2)C1c1ccc(F)cc1)c1ccccc1` (centres unmarked) [compound 29], the Ki was 130 nM.

Turning to `O=C(C1=C(O)C(=O)N(CCc2ccc(O)cc2)C1c1ccc(Br)cc1)c1ccccc1` (centres unmarked) [compound 31], the Ki was 189 nM.

Take `O=C(C1=C(O)C(=O)N(c2ccc(Br)cc2F)C1c1ccc(F)cc1)c1ccccc1` (centres unmarked) [compound 40]: the Ki is 224 nM.

Regarding `O=C(C1=C(O)C(=O)N(CCc2ccc(O)cc2)C1c1ccc(Cl)cc1)c1ccccc1` (centres unmarked) [compound 33], the Ki is 200 nM.

`O=C(C1=C(O)C(=O)N(CCc2ccc(O)cc2)C1C1CCCCC1)c1ccccc1` (centres unmarked) [compound 34]: the Ki is 231 nM.

Still in this assay, the particulars now being: 12 (2000 nM), CCR1_Nluc membranes; read-out: pKi ± SEM, CCR1 (converted).
Turning to `O=C(C1=C(O)C(=O)N(CCc2cccc(O)c2)C1c1ccc(F)cc1)c1ccccc1` (centres unmarked) [compound 27], the Ki is 178 nM.

`O=C(C1=C(O)C(=O)N(CCc2ccc(F)cc2)C1c1ccc(F)cc1)c1ccccc1` (centres unmarked) [compound 26]: the Ki is 871 nM.

As for `O=C(C1=C(O)C(=O)N(CCc2ccc(O)cc2)C1c1ccc(F)cc1)c1ccccc1` (single isomer, unassigned; (-)) [(-)-23], the Ki is 209 nM.

For the molecule `O=C(C1=C(O)C(=O)N(Cc2ccc(O)cc2)C1c1ccc(F)cc1)c1ccccc1` (centres unmarked) [compound 29], the Ki was 120 nM.

On to `O=C(C1=C(O)C(=O)N(CCc2ccc(O)cc2)C1c1ccc(Br)cc1)c1ccccc1` (centres unmarked) [compound 31], for which the Ki was 182 nM.

With `O=C(C1=C(O)C(=O)N(CCc2ccc(O)cc2)C1c1ccc(Cl)cc1)c1ccccc1` (centres unmarked) [compound 33], the Ki was 191 nM.

`O=C(C1=C(O)C(=O)N(CCc2ccc(O)cc2)C1C1CCCCC1)c1ccccc1` (centres unmarked) [compound 34]: the Ki is 219 nM.

The same assay, now with this note: compound at 20 μM, 12 (2000 nM).
As to `O=C(C1=C(O)C(=O)N(CCc2ccc(O)cc2)C1c1cccc(Br)c1)C1CC1` (centres unmarked) [compound 37], the “CCR1 inhibition class (n.i.)” value is listed as “n.i. (no inhibition (percentual inhibition at 20 μM < 10%))”.

On to `O=C(C1=C(O)C(=O)N(CCc2ccc(O)cc2)C1c1ccc(F)cc1)c1ccc(O)cc1` (centres unmarked) [compound 38], for which the “% inh. of tracer binding, CCR1” value came out at 42% @ 20 μM.

On to `O=C(C1=C(O)C(=O)N(c2ccc(O)cc2)C1c1ccc(F)cc1)c1ccccc1` (centres unmarked) [compound 30], for which the “% inh. of tracer binding, CCR1” value came to 32% @ 20 μM.

With `CC(=O)C1=C(O)C(=O)N(CCc2ccc(O)cc2)C1C1CCCCC1` (centres unmarked) [compound 24], the “CCR1 inhibition class (n.i.)” value is “n.i. (no inhibition (percentual inhibition at 20 μM < 10%))”.

Values taken from paper PMC11249626, “Fluorophore-Labeled Pyrrolones Targeting the Intracellular Allosteric Binding Site of the Chemokine Receptor CCR1” (ACS Pharmacology & Translational Science, 2024).
